These results are taken from patent US11999737B2, “Kinase inhibitors and related methods of use” (Duke University, priority 2014, dated 2024).

As usually defined, the pKd is −log10 of the Kd, conventionally taken in molar units.

Experiment [1] has as its target GFP-ZIPK (Homo sapiens, UniProt O43293). Put plainly: FLECS elution of GFP-ZIPK from γ-linked ATP Sepharose media. Type of experiment: binding. The conditions noted are these: titration from ATP Sepharose.
Experiment [2] addresses PIM3-GFP (Homo sapiens, UniProt Q86V86). Description: FLECS elution of PIM3-GFP from γ-linked ATP Sepharose media. Type of experiment: binding. The settings on record: titration from ATP Sepharose; calculated from EC50; read-out: apparent Kd, elution of PIM3-GFP.

pKd: −log10 of the molar value.

GFP-ZIPK, sequence (O43293 whole entry): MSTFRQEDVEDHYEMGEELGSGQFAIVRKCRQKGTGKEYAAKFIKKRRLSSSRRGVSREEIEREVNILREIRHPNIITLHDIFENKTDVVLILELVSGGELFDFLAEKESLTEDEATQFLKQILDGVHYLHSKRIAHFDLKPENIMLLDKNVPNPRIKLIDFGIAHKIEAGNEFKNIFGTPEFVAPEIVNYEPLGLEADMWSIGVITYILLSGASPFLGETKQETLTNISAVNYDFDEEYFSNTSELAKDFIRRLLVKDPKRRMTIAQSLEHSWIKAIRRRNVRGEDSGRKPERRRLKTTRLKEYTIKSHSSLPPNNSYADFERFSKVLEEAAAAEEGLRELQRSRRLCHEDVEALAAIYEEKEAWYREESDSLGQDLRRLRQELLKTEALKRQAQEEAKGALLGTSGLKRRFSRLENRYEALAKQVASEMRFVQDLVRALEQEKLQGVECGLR

As for `O=S(=O)(c1cccc2c(I)cccc12)N1CCCNCC1` [ML-7, reference compound], the “elution of full length GFP-ZIPK” value in experiment [1] is reported as “failed to elute”. Moreover, in experiment [2], the pKd is 6.70.
